The source of these data is patent publication US20260374754A1, “N-((ISOQUINOLIN-6-YL)METHYL)-1H-PYRAZOLE-4-CARBOXAMIDE DERIVATIVES AS PLASMA KALLIKREIN INHIBITORS FOR THE TREATMENT OF HEREDITARY ANGIODEMA” (Takeda Pharmaceutical Company Limited, priority 2022, published 2026).

SMILES strings stand for the structures. Where only a bound is given, the exact number is not on record here.

The target in experiment [1] is human activated kallikrein enzyme (Homo sapiens, UniProt P03952). Briefly: Inhibition of human activated plasma kallikrein, fluorogenic PFR-AMC substrate, 500 pM enzyme format. Format: biochemical. The note with it: 500 pM activated kallikrein; 300 μM PFR-AMC; 30 min preincubation; 10 min room temperature; pH 7.5; read-out: Primary Dose Response Assay: Average EC50. In outline: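 Using fluorogenic PFR-AMC at 300 μM, cleavage by 500 pM human activated kallikrein ran 10 min at room temperature, read at 460 nm emission (380 nm excitation). Enzyme and compounds were first preincubated 30 min in 20 mM Tris pH 7.5, 150 mM NaCl, 1 mM EDTA, 0.1% PEG-400, 0.1% Triton X-100.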
human activated kallikrein enzyme, sequence (P03952 391-638 limits assumed): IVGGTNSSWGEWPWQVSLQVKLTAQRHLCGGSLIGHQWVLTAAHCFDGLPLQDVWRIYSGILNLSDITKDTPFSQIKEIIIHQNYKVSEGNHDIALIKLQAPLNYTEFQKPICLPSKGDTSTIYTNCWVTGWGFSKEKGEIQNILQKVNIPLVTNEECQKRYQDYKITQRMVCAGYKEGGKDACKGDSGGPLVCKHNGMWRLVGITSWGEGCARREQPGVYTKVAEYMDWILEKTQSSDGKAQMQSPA
human activated kallikrein enzyme, sequence (P03952 20-390 partner limits assumed): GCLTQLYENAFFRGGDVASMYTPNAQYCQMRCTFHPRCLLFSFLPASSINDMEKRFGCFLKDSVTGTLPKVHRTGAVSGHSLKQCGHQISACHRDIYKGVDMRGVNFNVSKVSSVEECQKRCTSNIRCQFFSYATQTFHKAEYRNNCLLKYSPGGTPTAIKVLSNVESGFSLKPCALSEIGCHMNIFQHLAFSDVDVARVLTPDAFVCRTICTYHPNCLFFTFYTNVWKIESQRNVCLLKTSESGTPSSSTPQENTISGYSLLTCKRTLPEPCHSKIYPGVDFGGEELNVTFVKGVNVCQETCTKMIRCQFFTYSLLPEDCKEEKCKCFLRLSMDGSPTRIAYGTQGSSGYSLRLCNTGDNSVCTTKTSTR

In a further experiment the target is T1, plasma kallikrein (Homo sapiens, UniProt P03952).
T1 construct: PFR-AMC substrate
T1 sequence (P03952 20-638): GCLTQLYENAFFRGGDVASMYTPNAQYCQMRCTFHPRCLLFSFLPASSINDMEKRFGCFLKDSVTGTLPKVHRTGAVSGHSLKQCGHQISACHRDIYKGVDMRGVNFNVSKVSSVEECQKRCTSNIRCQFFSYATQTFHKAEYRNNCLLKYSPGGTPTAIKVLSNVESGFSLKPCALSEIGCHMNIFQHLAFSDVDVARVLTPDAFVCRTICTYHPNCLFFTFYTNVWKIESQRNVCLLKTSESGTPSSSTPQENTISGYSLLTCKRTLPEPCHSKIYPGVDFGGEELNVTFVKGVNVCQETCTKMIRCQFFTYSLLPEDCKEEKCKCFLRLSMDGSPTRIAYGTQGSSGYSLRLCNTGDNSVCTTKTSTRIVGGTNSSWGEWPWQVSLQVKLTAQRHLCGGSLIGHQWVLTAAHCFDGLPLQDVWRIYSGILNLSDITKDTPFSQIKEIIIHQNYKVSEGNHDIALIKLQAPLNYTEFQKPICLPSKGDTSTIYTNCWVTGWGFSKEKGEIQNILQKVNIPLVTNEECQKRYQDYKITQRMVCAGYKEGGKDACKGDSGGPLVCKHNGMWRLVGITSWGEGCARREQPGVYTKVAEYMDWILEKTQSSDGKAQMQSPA
Briefly: Neat Human Plasma Assay (Fluorogenic Peptide), contact pathway-activated (FXIIa) plasma. Type of experiment: biochemical. The settings on record: human citrated plasma 78% final; 10 nM human FXIIa; PFR-AMC substrate; 5 minutes; room temperature. The protocol:
To analyze inhibition of plasma kallikrein in an ex vivo setting, the potency of compounds was measure in contact pathway-activated plasma assays. In a fluorogenic peptide substrate assay, test compounds dissolved in DMSO were added to sodium citrate collected human or rat plasma in a 96-well microplate. Alternatively, citrated plasma was collected from rats administered the compounds orally or by IV. 10 nM of human FXIIa (Enzyme Research Laboratories) diluted in PKa buffer (20 mM Tris-HCl, pH 7.5, 150 mM NaCl, 1 mM EDTA, 0.1% PEG-8000, and 0.1% Triton X-100) was added to the plasma, followed by the […] of the profluorescent, synthetic plasma kallikrein substrate PFR-AMC (also diluted in PKa buffer). Final plasma concentration in the reaction was 78%. Fluorescence was immediately monitored by excitation/emission wavelengths of 360 nm/480 nm respectively over a period of 5 minutes in a microplate reader. The resulting linear increase in fluorescence emission (reflecting PKa proteolysis of PFR-AMC substrate) was fit to extract a proteolytic rate (fluorescent units over time), and this rate was subsequently plotted against compound inhibitor concentration. Resulting plots were fit to a standard 4-parameter IC50/IC90 equation to determine min/max values, IC50/90, and slope. All experimental steps were performed at room temperature.

A word on the EC50: it is the concentration needed to bring the measured effect to its halfway point. The term IC90 denotes the concentration at which the effect reaches the 90% level.

`Cc1cc2c(N)nccc2c(C)c1CNC(=O)c1cnn(Cc2cn3cc(Cl)ccc3n2)c1` [Example 101, N-((1-amino-5,7-dimethylisoquinolin-6-yl)methyl)-1-((6-chloroimidazo[1,2-a]pyridin-2-yl)methyl)-1H-pyrazole-4-carboxamide]: in experiment [1], the EC50 was under 1 nM. Besides, the IC90 at plasma kallikrein was at most 1000 nM.
The like results for `Cc1cnc2ccc(Cn3cc(C(=O)NCc4c(C)cc5c(N)nccc5c4C)cn3)cc2c1` [Example 115, N-((1-amino-5,7-dimethylisoquinolin-6-yl)methyl)-1-((3-methylquinolin-6-yl)methyl)-1H-pyrazole-4-carboxamide] were, in that order, under 1 nM and at most 1000 nM.
The corresponding values for `Cc1cc2c(N)nccc2c(C)c1CNC(=O)c1cnn(Cc2ccc(Cn3ccccc3=O)cc2)c1` [Example 192, N-((1-amino-5,7-dimethylisoquinolin-6-yl)methyl)-1-(4-((2-oxopyridin-1(2H)-y1)methyl)benzyl)-1H-pyrazole-4-carboxamide] are under 1 nM and at most 1000 nM.
For `Cc1cc2c(N)nccc2c(C)c1CNC(=O)c1cn(Cc2ccc(N3CCCC3)nc2)nc1C(F)(F)F` [Example 194, N-((1-amino-5,7-dimethylisoquinolin-6-yl)methyl)-1-((6-(pyrrolidin-1-yl)pyridin-3-yl)methyl)-3-(trifluoromethyl)-1H-pyrazole-4-carboxamide], the EC50 in experiment [1] lay in the range of 1 to 10 nM. Besides, the IC90 against plasma kallikrein was over 5000 nM.
The like results for `Cc1cc2c(N)nccc2c(C)c1CNC(=O)c1cnn(Cc2ccc(CC(=O)N3CC4CC4C3)cc2)c1` (stereo not drawn) [Example 222, 1-(4-(2-(3-azabicyclo[3.1.0]hexan-3-yl)-2-oxoethyl)benzyl)-N-((1-amino-5,7-dimethylisoquinolin-6-yl)methyl)-1H-pyrazole-4-carboxamide] were, in that order, under 1 nM and 1000 to 5000 nM.
As for `Cc1cc2c(N)nccc2c(C)c1CNc1cc(NCc2ccc(Cn3ccccc3=O)cc2)cnn1` [Example 236, 1-(4-(((6-(((1-amino-5,7-dimethylisoquinolin-6-yl)methyl)amino)pyridazin-4-yl)amino)methyl)benzyl)pyridin-2(1H)-one], the EC50 in experiment [1] is under 1 nM. Besides, the IC90 on plasma kallikrein is at most 1000 nM.
Regarding `Cc1cc2c(N)nccc2c(C)c1CNc1cc(OCc2ccc3ncc(C4CC4)cc3c2)ccn1` [Example 239, 6-(((4-((3-cyclopropylquinolin-6-yl)methoxy)pyridin-2-yl)amino)methyl)-5,7-dimethylisoquinolin-1-amine], in experiment [1], the EC50 was 1 to 10 nM. At plasma kallikrein, this compound registered an IC90 of over 5000 nM.
As for `Cc1cc2c(N)nccc2c(C)c1CNc1nccnc1NCc1cn2cc(C3CC3)ccc2n1` [Example 240], the half-maximal effective concentration (EC50) in experiment [1] was 1 to 10 nM. On plasma kallikrein, the 90% effect concentration (IC90) was 1000 to 5000 nM.
As for `Cc1cc2c(N)nccc2c(C)c1CNc1cc(NCc2cn3nc(C4CC4)ccc3n2)ncn1` [Example 242, N4-((1-amino-5,7-dimethylisoquinolin-6-yl)methyl)-N6-((6-cyclopropylimidazo[1,2-b]pyridazin-2-yl)methyl)pyrimidine-4,6-diamine], the EC50 in experiment [1] was under 1 nM. On plasma kallikrein, the IC90 is 1000 to 5000 nM.
The corresponding values for `Cc1cc2c(N)nccc2c(C)c1CNc1cc(NCc2cc3cc(C4CC4)cnc3s2)ncn1` [Example 243, N4-((1-amino-5,7-dimethylisoquinolin-6-yl)methyl)-N6-((5-cyclopropylthieno[2,3-b]pyridin-2-yl)methyl)pyrimidine-4,6-diamine] are under 1 nM and at most 1000 nM.
The like results for `Cc1cc2c(N)nccc2c(C)c1CNc1cc(NCc2cc3cc(C4CC4)ccn3n2)ncn1` [Example 244] were, in that order, under 1 nM and 1000 to 5000 nM.
The corresponding values for `Cc1cc2c(N)nccc2c(C)c1CNc1cc(OCc2cn3cc(C4CC4)cc(C4(O)COC4)c3n2)ncn1` [Example 250, 3-(2-(((6-(((1-amino-5,7-dimethylisoquinolin-6-yl)methyl)amino)pyrimidin-4-yl)oxy)methyl)-6-cyclopropylimidazo[1,2-a]pyridin-8-yl)oxetan-3-ol] are under 1 nM and at most 1000 nM.
Consider `Cc1cc2c(N)nccc2c(C)c1CNc1cc(OCc2ccc(Cn3cccn3)cc2)ncn1` [Example 251, 6-(((6-((4-((1H-pyrazol-1-yl)methyl)benzyl)oxy)pyrimidin-4-yl)amino)methyl)-5,7-dimethylisoquinolin-1-amine], for which the EC50 in experiment [1] was under 1 nM. Further, at plasma kallikrein, the IC90 is over 5000 nM.
The like results for `Cc1cc2c(N)nccc2c(C)c1CNc1cc(OCc2cc3cc(C4CC4)cc(N4CCOC4=O)n3n2)ncn1` [Example 256, 3-(2-(((6-(((1-amino-5,7-dimethylisoquinolin-6-yl)methyl)amino)pyrimidin-4-yl)oxy)methyl)-5-cyclopropylpyrazolo[1,5-a]pyridin-7-yl)oxazolidin-2-one] were, in that order, under 1 nM and at most 1000 nM.
Regarding `Cc1cc2c(N)nccc2c(C)c1CNc1cc(OCc2cn3cc(C4CC4)cc(C#N)c3n2)ncn1` [Example 258, 2-(((6-(((1-amino-5,7-dimethylisoquinolin-6-yl)methyl)amino)pyrimidin-4-yl)oxy)methyl)-6-cyclopropylimidazo[1,2-a]pyridine-8-carbonitrile], the concentration giving a half-maximal response (EC50) in experiment [1] was under 1 nM. Besides, the IC90 on plasma kallikrein is over 5000 nM.
Turning to `Cc1cc2c(N)nccc2c(C)c1CNc1cc(OCc2cn3cc(C4CC4)cc(N4CCCC4=O)c3n2)ncn1` [Example 259, 1-(2-(((6-(((1-amino-5,7-dimethylisoquinolin-6-yl)methyl)amino)pyrimidin-4-yl)oxy)methyl)-6-cyclopropylimidazo[1,2-a]pyridin-8-yl)pyrrolidin-2-one], the EC50 in experiment [1] was under 1 nM. At plasma kallikrein, this compound had an IC90 of at most 1000 nM.
On to `Cc1cc2c(N)nccc2c(C)c1CNc1cc(OCc2cn3nc(C4CC4)ccc3n2)ncn1` [Example 261, 6-(((6-((6-cyclopropylimidazo[1,2-b]pyridazin-2-yl)methoxy)pyrimidin-4-yl)amino)methyl)-5,7-dimethylisoquinolin-1-amine], for which the EC50 in experiment [1] is under 1 nM. Also, on plasma kallikrein, the IC90 lay in the range of 1000 to 5000 nM.
The corresponding values for `Cc1cc2c(N)nccc2c(C)c1CNc1cc(OCc2cn3cc(C4CC4)cnc3n2)ncn1` [Example 262, 6-(((6-((6-cyclopropylimidazo[1,2-a]pyrimidin-2-yl)methoxy)pyrimidin-4-yl)amino)methyl)-5,7-dimethylisoquinolin-1-amine] are under 1 nM and at most 1000 nM.
The corresponding values for `Cc1cc2c(N)nccc2c(C)c1CNc1nccc2cn(Cc3cn4nc(C5CC5)ccc4n3)nc12` [Example 265, 6-(((2-((6-cyclopropylimidazo[1,2-b]pyridazin-2-yl)methyl)-2H-pyrazolo[3,4-c]pyridin-7-yl)amino)methyl)-5,7-dimethylisoquinolin-1-amine] are under 1 nM and at most 1000 nM.
The corresponding values for `Cc1cc2c(N)nccc2c(C)c1CNc1nccc2nn(Cc3cn4cc(C5CC5)ccc4n3)cc12` [Example 267, 6-(((2-((6-cyclopropylimidazo[1,2-a]pyridin-2-yl)methyl)-2H-pyrazolo[4,3-c]pyridin-4-yl)amino)methyl)-5,7-dimethylisoquinolin-1-amine] are under 1 nM and at most 1000 nM.
As for `Cc1cc2c(N)nccc2c(C)c1CNc1cc2c(cn1)cnn2Cc1cn2cc(C3CC3)ccc2n1` [Example 268, 6-(((1-((6-cyclopropylimidazo[1,2-a]pyridin-2-yl)methyl)-1H-pyrazolo[4,3-c]pyridin-6-yl)amino)methyl)-5,7-dimethylisoquinolin-1-amine], in experiment [1], the EC50 is under 1 nM. On plasma kallikrein, this compound returned an IC90 of at most 1000 nM.
For the compound `Cc1cc2c(N)nccc2c(C)c1CNc1cc(OCc2cn3cc(C4CC4)cc(C4(F)COC4)c3n2)ncn1` [Example 272, 6-(((6-((6-cyclopropyl-8-(3-fluorooxetan-3-yl)imidazo[1,2-a]pyridin-2-yl)methoxy)pyrimidin-4-yl)amino)methyl)-5,7-dimethylisoquinolin-1-amine], the EC50 in experiment [1] was under 1 nM. This compound showed an IC90 against plasma kallikrein of 1000 to 5000 nM.
For the compound `Cc1cc2c(N)nccc2c(C)c1CNc1cc(OCc2cc3cc(C4CC4)cc(CCC(=O)O)n3n2)ncn1` [Example 273, 3-(2-(((6-(((1-amino-5,7-dimethylisoquinolin-6-yl)methyl)amino)pyrimidin-4-yl)oxy)methyl)-5-cyclopropylpyrazolo[1,5-a]pyridin-7-yl)propanoic acid], the EC50 in experiment [1] is under 1 nM. This compound returned an IC90 against plasma kallikrein of over 5000 nM.
The corresponding values for `Cc1cc2c(N)nccc2c(C)c1CNc1cc(OCc2cn3cc(C4CC4)ccc3n2)c(Cl)cn1` [Example 280, 6-(((5-chloro-4-((6-cyclopropylimidazo[1,2-a]pyridin-2-yl)methoxy)pyridin-2-yl)amino)methyl)-5,7-dimethylisoquinolin-1-amine] are 1 to 10 nM and over 5000 nM.
